In general, melting point refers to the temperature, or range, at which the solid turns liquid. In the case of `O=C(NCCc1cccs1)C12CC3CC(CC(O)(C3)C1)C2` [STX1676, 3-Hydroxy-adamantane-1-carboxylic acid(2-thiophen-2-yl-ethyl)-amide], the melting point fell in the range of 118 to 119 °C. Under `O=C(COCc1cccs1)C12CC3CC(CC(C3)C1)C2` [STX1692, 1-Adamantan-1-yl-2-(thiophen-2-ylmethoxy)-ethanone] stands 57.2 to 58.3 °C.

`O=C(NCCc1cccs1)[C@H]1CC2C=CC1C2` (stereo partly drawn) [STX1707, Bicyclo[2.2.1]hept-5-ene-2-carboxylic acid(2-thiophen-2-yl-ethyl)-amide (exo)] displayed a melting point of 71 to 72 °C.

Regarding `O=C(NCCc1cccs1)[C@@H]1CC2C=CC1C2` (stereo partly drawn) [STX1708, Bicyclo[2.2.1]hept-5-ene-2-carboxylic acid(2-thiophen-2-yl-ethyl)-amide (endo)], the melting point was in the range of 122 to 124 °C. Turning to `CN(Cc1cccs1)C(=O)[C@H]1CC2C=CC1C2` (stereo partly drawn) [STX1709, Bicyclo[2.2.1]hept-5-ene-2-carboxylic acid methyl-thiophen-2-ylmethyl-amide (exo)], the melting point was in the range of 74 to 75 °C.

Turning to `O=C(NC12CC3CC(CC(C3)C1)C2)OCc1cccs1` [STX1711, Adamantan-1-yl-carbamic acid thiophen-2-ylmethyl ester], the melting point lay in the range of 66 to 68 °C.

In turn, `O=C(NC12CC3CC(CC(C3)C1)C2)OCCc1cccs1` [STX1712, Adamantan-1-yl-carbamic acid 2-thiophen-2-yl-ethyl ester] yielded a melting point of 67 to 69 °C. The same measure for `O=C(NCCc1cccs1)NC12CC3CC(CC(C3)C1)C2` [STX1714, 1-Adamantan-1-yl-3-(2-thiophen-2-yl-ethyl)-urea]: 138 to 142 °C; for `O=C(N1CCc2sccc2C1)C12CC3CC(CC(C3)C1)C2` [STX1721, Adamantan-1-yl-(6,7-dihydro-4H-thieno[3,2-c]pyridin-5-yl)-methanone]: 141 to 143 °C; for `Cc1nc2cc(NCC(=O)C(C)(C)C)ccc2s1` [STX1740, 3,3-Dimethyl-1-(2-methyl-benzothiazol-5-ylamino)-butan-2-one]: 108 to 111 °C. The same measure for `CN(CCc1ccccn1)C(=O)C12CC3CC(CC(C3)C1)C2` [STX1887, Adamantane-1-carboxylic acid methyl-(2-pyridin-2-yl-ethyl)-amide]: 64 to 65 °C; for `[O-][S+](Cc1cn(C23CC4CC(CC(C4)C2)C3)nn1)c1cc(Cl)ccc1Cl` (stereo not drawn) [STX1892, 1-Adamantan-1-yl-4-(2,5-dichloro-benzenesulfinylmethyl)-1H-[1,2,3]triazole]: 125 to 128 °C; for `COc1ccc(OCc2cn(C34CC5CC(CC(C5)C3)C4)nn2)cc1OC` [STX1893, 1-Adamantan-1-yl-4-(3,4-dimethoxy-phenoxymethyl)-1H-[1,2,3]triazole]: 108 to 112 °C. The same measure for `Cn1ccnc1SCC(=O)C12CC3CC(CC(C3)C1)C2` [STX1898, 1-Adamantan-1-yl-2-(1-methyl-1H-imidazol-2-ylsulfanyl)-ethanone]: 65 to 69 °C; for `O=C(CSc1cccs1)C12CC3CC(CC(C3)C1)C2` [STX1902, 1-Adamantan-1-yl-2-(thiophen-2-ylsulfanyl)-ethanone]: 69 to 72 °C; for `O=C(C[S+]([O-])Cc1ccco1)C12CC3CC(CC(C3)C1)C2` (stereo not drawn) [STX1908, 1-Adamantan-1-yl-2-(furan-2-ylmethanesulfinyl)-ethanone]: 75 to 79 °C. `CN(CCc1cccs1)C(=O)C12CC3CC(CC(C3)C1)C2` [STX1910, Adamantane-1-carboxylic acid methyl-(2-thiophen-2-yl-ethyl)-amide] came in with a melting point of 95 to 99 °C. The same measure for `Cn1ccnc1[S+]([O-])CC(=O)C12CC3CC(CC(C3)C1)C2` (stereo not drawn) [STX1924, 1-Adamantan-1-yl-2-(1-methyl-1H-imidazole-2-sulfinyl)-ethanone]: 86 to 89 °C.

(Values after patent US20100120789A1, “Compound” (priority 2005, published 2010).)
